Results as given in the supplement of paper PMC7840683.
± gives the standard deviation of the averaged measurements.

Test system: HepaRG
Assay: LDH release cytotoxicity, % of total lysis control; higher = more cytotoxic
Settings: 48 h
Outline: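 HepaRG cells from a single lot were plated on collagen I-coated 96-well plates and treated in duplicate for 48 h with eight-point half-log series of test chemicals, starting at 100 µM, in serum-free induction medium containing 0.5% DMSO. Total lysis wells were given 0.1% Triton X. LDH released into 50 µL of spent medium was measured as resorufin fluorescence with CytoTox-ONE on a Tecan Safire. Percent cytotoxicity was normalized to on-plate vehicle and total lysis controls and then averaged across duplicates.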

Compound | LDH release cytotoxicity (0.03162 µM) | LDH release cytotoxicity (0.1 µM) | LDH release cytotoxicity (0.3162278 µM) | LDH release cytotoxicity (1 µM) | LDH release cytotoxicity (3.16228 µM) | LDH release cytotoxicity (10 µM) | LDH release cytotoxicity (31.6228 µM) | LDH release cytotoxicity (100 µM) | LDH release cytotoxicity (0.0324133 µM) | LDH release cytotoxicity (0.1025 µM) | LDH release cytotoxicity (0.324134 µM) | LDH release cytotoxicity (1.025 µM) | LDH release cytotoxicity (3.24133 µM) | LDH release cytotoxicity (10.25 µM) | LDH release cytotoxicity (32.4133 µM) | LDH release cytotoxicity (102.5 µM)
ClC(Cl)c1ccccc1 [Benzal chloride] | 0.273 ± 0.17% | -0.75 ± 0.78% | -0.461 ± 0.39% | -1.3 ± 1.2% | -1.29 ± 0.9% | 0.533 ± 0.9% | 1.06 ± 1.1% | 2.15 ± 0.29% |  |  |  |  |  |  |  | 
Nc1ccc(-c2ccc(N)cc2)cc1 [Benzidine] | -0.869 ± 4.3% | -2.2 ± 0.13% | -3.09 ± 0.054% | -2.37 ± 0.27% | -2.3 ± 0.28% | 0.338 ± 4% | -0.733 ± 0.045% | 0.306 ± 0.029% |  |  |  |  |  |  |  | 
c1ccc2c(c1)-c1cccc3c1c-2cc1ccccc13 [Benzo(b)fluoranthene] | -1.73 ± 0.79% | -2.8 ± 0.051% | -1.72 ± 0.55% | -2.85 ± 1% | -1.02 ± 0.32% | 1.06 ± 1.1% | 5.33 ± 2.5% | 5.52 ± 2.2% |  |  |  |  |  |  |  | 
O=C(O)c1ccccc1 [Benzoic acid] |  |  |  |  |  |  |  |  | -0.341 ± 0.5% | -0.867 ± 1.3% | -1.11 ± 1.2% | -0.944 ± 0.73% | -0.925 ± 0.73% | 0.28 ± 0.2% | 0.174 ± 0.36% | 0.953 ± 0.28%
ClC(Cl)(Cl)c1ccccc1 [Benzotrichloride] | -0.669 ± 1.1% | -1.85 ± 0.77% | -1.72 ± 0.38% | -1.748 ± 0.0065% | -1.92 ± 0.31% | -2.01 ± 0.6% | -1.18 ± 0.47% | -0.246 ± 0.61% |  |  |  |  |  |  |  | 
OCc1ccccc1 [Benzyl alcohol] | -0.977 ± 0.76% | -1.47 ± 0.31% | -1.57 ± 1.4% | -2.41 ± 1.3% | -1.69 ± 0.91% | -1.73 ± 1.6% | -1.32 ± 1.4% | -1.07 ± 1.2% |  |  |  |  |  |  |  | 
CCCCOC(=O)c1ccccc1C(=O)OCc1ccccc1 [Benzyl butyl phthalate] | -0.944 ± 0.033% | -1.99 ± 0.74% | -1.76 ± 0.079% | -1.14 ± 0.11% | -1.707 ± 0.0079% | -2.01 ± 0.3% | -0.748 ± 0.15% | 0.329 ± 0.83% |  |  |  |  |  |  |  | 
CCCCC(CC)COC(=O)CCCCC(=O)OCc1ccccc1 (configuration not stated) [Benzyloctyl adipate] | -0.155 ± 0.27% | -0.43 ± 0.37% | 0.101 ± 0.76% | -0.128 ± 1.1% | 1.13 ± 0.71% | 0.566 ± 0.22% | 0.4 ± 0.39% | 1.95 ± 0.065% |  |  |  |  |  |  |  | 
O=c1[nH]c2ccc(S(=O)CCN3CCC(Cc4ccc(F)cc4)CC3)cc2o1 (configuration not stated) [Besonprodil] | -2.69 ± 1.3% | -1.42 ± 0.9% | -1.87 ± 0.18% | -0.983 ± 0.15% | -0.767 ± 0.42% | -1.16 ± 0.83% | -1.7 ± 0.064% | 2.32 ± 2.9% |  |  |  |  |  |  |  | 
COc1ccc(-c2ccccc2)cc1NNC(=O)OC(C)C [Bifenazate] | -1.53 ± 0.49% | -1.35 ± 0.97% | -1.03 ± 0.83% | -1.59 ± 0.54% | -1.11 ± 0.95% | -0.547 ± 1.4% | -0.468 ± 0.53% | 1.1 ± 1.1% |  |  |  |  |  |  |  | 
Cc1c(COC(=O)C2C(C=C(Cl)C(F)(F)F)C2(C)C)cccc1-c1ccccc1 (configuration not stated) [Bifenthrin] | -1.61 ± 1.9% | -2.22 ± 0.62% | -2.26 ± 0.28% | -2.12 ± 0.18% | -1.77 ± 0.75% | -1.98 ± 0.032% | -2.13 ± 0.62% | -0.496 ± 0.96% |  |  |  |  |  |  |  | 
c1ccc(-c2ccccc2)cc1 [Biphenyl] | -3.64 ± 0.49% | -2.69 ± 0.98% | -2.88 ± 0.12% | -2.22 ± 0.45% | -2.07 ± 0.53% | -1.35 ± 0.15% | -1.49 ± 0.43% | 0.572 ± 0.68% |  |  |  |  |  |  |  | 
ClCCOCCCl [Bis(2-chloroethyl) ether] | -2.26 ± 0.94% | -1.98 ± 0.48% | -2.69 ± 0.3% | -2.69 ± 0.29% | -1.96 ± 0.21% | -2.12 ± 0.39% | -2.25 ± 0.35% | -0.123 ± 0.23% |  |  |  |  |  |  |  | 
CCCCC(CC)COC(=O)CCCCCCCCC(=O)OCC(CC)CCCC (configuration not stated) [Bis(2-ethylhexyl) decanedioate] | -11.5 ± 0.13% | -10.5 ± 0.46% | -10.7 ± 0.93% | -10.2 ± 0.19% | -10.2 ± 0.27% | -10.1 ± 1.7% | -9.5 ± 0.95% | -8.97 ± 0.81% |  |  |  |  |  |  |  | 
CCCCC(CC)COC(=O)CCCCCCCC(=O)OCC(CC)CCCC (configuration not stated) [Bis(2-ethylhexyl) nonanedioate] | -1.88 ± 0.055% | -2.868 ± 0.0068% | -2.85 ± 0.81% | -3 ± 0.21% | -2.9 ± 0.15% | -2.46 ± 0.2% | -2.95 ± 0.69% | -1.1 ± 0.36% |  |  |  |  |  |  |  | 
CCCCC(CC)COC(=O)c1ccc(C(=O)OCC(CC)CCCC)cc1 (configuration not stated) [Bis(2-ethylhexyl) terephthalate] | -2 ± 1.1% | -1.13 ± 0.62% | -1.76 ± 0.63% | -2.5 ± 0.76% | -2.35 ± 0.77% | -2.12 ± 0.71% | -2.26 ± 0.82% | -1.14 ± 0.6% |  |  |  |  |  |  |  | 
CCCCC(CC)COC(=O)CCCCC(=O)OCC(CC)CCCC (configuration not stated) [Bis(2-ethylhexyl)hexanedioate] | -2.21 ± 0.34% | -2.881 ± 0.019% | -3.04 ± 0.8% | -2.88 ± 0.9% | -2.66 ± 0.66% | -2.86 ± 0.26% | -2.54 ± 0.088% | -1.41 ± 0.75% |  |  |  |  |  |  |  | 
Oc1ccc(C(c2ccc(O)cc2)(C(F)(F)F)C(F)(F)F)cc1 [Bisphenol AF] | -1.31 ± 0.014% | -1.4 ± 0.37% | -1.16 ± 0.18% | -1.45 ± 0.031% | -0.575 ± 0.055% | -1.57 ± 0.15% | -1.62 ± 0.47% | 83.2 ± 2.1% |  |  |  |  |  |  |  | 
CC(C)(c1ccc(O)cc1)c1ccc(O)cc1 [Bisphenol A] | -1.32 ± 0.3% | -0.356 ± 1.2% | -1.1 ± 0.41% | -1.37 ± 0.015% | -0.158 ± 0.45% | 0.439 ± 0.41% | 0.463 ± 0.27% | 1.47 ± 1.2% |  |  |  |  |  |  |  | 
